Measurements reported in patent publication US9499599B2, “Composition and methods for stimulating gastrointestinal motility” (Ipsen Pharma S.A.S., priority 2005, dated 2016).
Non-standard residues stand in square brackets, D forms with d. Residues, ends and D or L forms follow the SMILES beside them. No end group written: not given here. Ala(4-thiazolyl) = N[C@@H](Cc1cscn1)C(=O)O; d2Nal = N[C@H](Cc1ccc2ccccc2c1)C(=O)O; dBta = N[C@H](Cc1csc2ccccc12)C(=O)O; Api = NC1(C(=O)O)CCNCC1; Inp = O=C(O)C1CCNCC1

Experiments:
[1] = target: T1, human recombinant GHS receptor (Homo sapiens, UniProt Q92847); assay: GHS-receptor binding assay, (125I)ghrelin displacement; details: 0.05 nM (125I)ghrelin, membranes of CHO-K1 cells expressing human recombinant GHS receptor, 60 min at 4° C.
T1 construct: The full length human GHS-R was subcloned into the mammalian expression vector pcDNA 3.1; expressed in transfected cells; membrane homogenates used
T1 sequence (Q92847 whole entry): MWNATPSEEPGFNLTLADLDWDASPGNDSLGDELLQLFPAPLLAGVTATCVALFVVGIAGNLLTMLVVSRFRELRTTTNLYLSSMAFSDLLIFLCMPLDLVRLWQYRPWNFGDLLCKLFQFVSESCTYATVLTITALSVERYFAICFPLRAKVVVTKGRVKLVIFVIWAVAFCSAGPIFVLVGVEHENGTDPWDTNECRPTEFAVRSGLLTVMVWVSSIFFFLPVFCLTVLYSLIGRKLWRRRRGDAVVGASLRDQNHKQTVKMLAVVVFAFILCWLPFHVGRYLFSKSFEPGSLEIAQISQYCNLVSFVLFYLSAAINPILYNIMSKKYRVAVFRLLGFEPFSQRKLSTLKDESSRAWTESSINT
Method: Membranes for radioligand binding studies can be and were prepared by homogenization of the foregoing CHO-K1 cells expressing the human recombinant GHS receptor. The cells were homogenized in 20 ml of ice-cold 50 mM Tris-HCl using a Brinkman Polytron® (Westbury, N.Y.; setting 6, 15 sec). The homogenates were washed twice by centrifugation (39,000 g/10 min) and the final pellets were resuspended in 50 mM Tris-HCl containing 2.5 mM MgCl2 and 0.1% bovine serum albumin (BSA).

rats [2] = details: post-operative ileus model; cited from earlier work
mice = details: cited from earlier work
rats [3] = assay: In vivo study on intestinal transit, charcoal meal; design: species or system rat; details: fasted anesthetized rats, charcoal meal by esophageal gavage
Method: In the study, groups of eight rats were fasted for approximately 24 hours with free access to water. Anesthetized test subjects were administered native ghrelin, the selected analog and atropine as a control. The test subjects were administered a 2 ml charcoal meal by esophageal gavage approximately five minutes after the initial administration of ghrelin, the selected analog or atropine. After approximately an additional 25 minutes, the test subjects were sacrificed by cervical rupture and the small intestines were removed. The distance the charcoal traveled was measured from the pylorus.

male Sprague Dawley rats [4] = assay: Effect on POI in rat (laparotomy-induced gastric ileus), gastric emptying; type: in vivo; details: 3 centimeter laparotomy, administered subcutaneously
male Sprague Dawley rats [5] = assay: In vivo gastric emptying, subcutaneous administration, phenol red meal; design: species or system rat; details: fasted rats, injected subcutaneously, varying doses
Method: The animals were injected subcutaneously with either vehicle or varying doses of native ghrelin or selected ghrelin analogs. After approximately 15 minutes, 1.5 ml of a phenol red marked nutrient meal (0.5 mg/ml phenol red & 1.5% methyl cellulose in whole milk) was administered orally to the rats. […] The residual phenol red in the stomach was extracted and measured by spectrophotometric methods at a wavelength of 560 nm. […] (see Figures)

[6] = system: patients with diabetic gastroparesis; details: cited from earlier work
male Sprague Dawley rats [7] = assay: In vivo gastric emptying, intravenous administration, phenol red meal; design: species or system rat; details: fasted anesthetized rats, administered intravenously
Method: Selected compounds of the invention can be and were tested to determine the effect of the compounds upon gastric emptying. […] Native ghrelin, the selected ghrelin analog and a metoclopramide control compound were administered intravenously to anesthetized test subjects. Approximately five minutes after the initial administration of native ghrelin, the selected ghrelin analog or the control compound, a 1.5 ml meal marked with phenol red (0.5 mg/ml phenol red and 1.5% methyl cellulose in whole milk) was administered to each test subject by esophageal gavage. After approximately an additional 20 minutes, the test subjects were sacrificed by cervical rupture and the stomachs removed and individually pulverized. The residual phenol red in the stomach of the test subjects was extracted and was measured spectrophometrically at a wavelength of 560 nm.

septic mice = details: cited from earlier work
rats [8] = details: cited from earlier work
Ferrets = details: ferrets exposed to cisplatin, intracerebroventricular administration; cited from earlier work
laparectomized dogs = details: cited from earlier work

Molecule | Ki [1] | effect on gastric emptying (mice) | effect on intestinal transit (distance the charcoal traveled from the pylorus) (rats [3]) | effect on gastric emptying under post-operative ileus conditions (male Sprague Dawley rats [4]) | effect on gastric emptying (residual phenol red in stomach) (male Sprague Dawley rats [5]) | effect on gastric emptying (residual phenol red in stomach) (male Sprague Dawley rats [7]) | effect on gastric emptying (septic mice) | effect on transit in the small intestine (septic mice) | effect on gastric emptying (rats [8]) | also measured
NCCCC[C@H](NC(=O)[C@H](Cc1ccccc1)NC(=O)[C@@H](Cc1c[nH]c2ccccc12)NC(=O)[C@@H](Cc1ccc2ccccc2c1)NC(=O)C1CCNCC1)C(N)=O [Example #2, Inp-D-2-Nal-D-Trp-Phe-Lys-NH2] (HELM PEPTIDE1{[O=C(C1CCNCC1)[*:2]].[O=C([C@@H](Cc1ccc2ccccc2c1)N[*:1])[*:2]].[dW].F.K.[am]}$$$$V2.0) | 0.3 nM |  |  |  |  |  |  |  |  | 
NCCCC[C@H](NC(=O)[C@H](Cc1cscn1)NC(=O)[C@@H](Cc1c[nH]c2ccccc12)NC(=O)[C@@H](Cc1ccc2ccccc2c1)NC(=O)C1CCNCC1)C(N)=O [Example #37, H-Inp-D-2-Nal-D-Trp-Taz-Lys-NH2] (H-[Inp][d2Nal][dW][Ala(4-thiazolyl)]K-NH2) | 0.8 nM |  |  |  |  |  |  |  |  | 
H-Gly-Ser-Ser-Phe-Leu-Ser-Pro-Glu-His-Gln-Arg-Val-Gln-Gln-Arg-Lys-Glu-Ser-Lys-Lys-Pro-Pro-Ala-Lys-Leu-Gln-Pro-Arg-NH2 (H-GSSFLSPEHQRVQQRKESKKPPAKLQPR-NH2) [ghrelin, orexigenic hormone, native ligand for the GHS receptor] |  | accelerate gastric emptying | accelerated gastric intestinal transit | significantly accelerated gastric emptying | accelerated gastric emptying | accelerated gastric emptying | accelerated gastric emptying | little effect upon increasing transit in the small intestine | accelerate gastric emptying | effect on delay of gastric emptying (rats [2]): reverse the delay of gastric emptying; effect on gastric emptying [6]: increase gastric emptying; occurrences of retching and vomiting (Ferrets): significantly reduced occurrences of retching and vomiting; effect on POI (laparectomized dogs): improve POI
NC(=O)C1(NC(=O)[C@H](Cc2ccccc2)NC(=O)[C@@H](Cc2c[nH]c3ccccc23)NC(=O)[C@@H](Cc2csc3ccccc23)NC(=O)C2CCNCC2)CCNCC1 [Example #19, H-Inp-D-Bal-D-Trp-Phe-Apc-NH2] (H-[Inp][dBta][dW]F[Api]-NH2) |  |  | accelerated gastric intestinal transit | significantly accelerated gastric emptying | accelerated gastric emptying | accelerated gastric emptying |  |  |  | 
His-D-Trp-Ala-Trp-D-Phe-Lys-amide (H[dW]AW[dF]K-NH2) [GHRP-6] |  | accelerate gastric emptying |  |  |  |  | accelerated gastric emptying | little effect upon increasing transit in the small intestine | accelerate gastric emptying | 
